{
  "source": "ChEMBL document CHEMBL4879554",
  "about": "“Data for DCP probe GNE-2256” (2021)",
  "key": {"[1]": {"molecular_target": "Tyrosine-protein kinase JAK2 (Homo sapiens, UniProt O60674)", "sequence (O60674 whole entry)": "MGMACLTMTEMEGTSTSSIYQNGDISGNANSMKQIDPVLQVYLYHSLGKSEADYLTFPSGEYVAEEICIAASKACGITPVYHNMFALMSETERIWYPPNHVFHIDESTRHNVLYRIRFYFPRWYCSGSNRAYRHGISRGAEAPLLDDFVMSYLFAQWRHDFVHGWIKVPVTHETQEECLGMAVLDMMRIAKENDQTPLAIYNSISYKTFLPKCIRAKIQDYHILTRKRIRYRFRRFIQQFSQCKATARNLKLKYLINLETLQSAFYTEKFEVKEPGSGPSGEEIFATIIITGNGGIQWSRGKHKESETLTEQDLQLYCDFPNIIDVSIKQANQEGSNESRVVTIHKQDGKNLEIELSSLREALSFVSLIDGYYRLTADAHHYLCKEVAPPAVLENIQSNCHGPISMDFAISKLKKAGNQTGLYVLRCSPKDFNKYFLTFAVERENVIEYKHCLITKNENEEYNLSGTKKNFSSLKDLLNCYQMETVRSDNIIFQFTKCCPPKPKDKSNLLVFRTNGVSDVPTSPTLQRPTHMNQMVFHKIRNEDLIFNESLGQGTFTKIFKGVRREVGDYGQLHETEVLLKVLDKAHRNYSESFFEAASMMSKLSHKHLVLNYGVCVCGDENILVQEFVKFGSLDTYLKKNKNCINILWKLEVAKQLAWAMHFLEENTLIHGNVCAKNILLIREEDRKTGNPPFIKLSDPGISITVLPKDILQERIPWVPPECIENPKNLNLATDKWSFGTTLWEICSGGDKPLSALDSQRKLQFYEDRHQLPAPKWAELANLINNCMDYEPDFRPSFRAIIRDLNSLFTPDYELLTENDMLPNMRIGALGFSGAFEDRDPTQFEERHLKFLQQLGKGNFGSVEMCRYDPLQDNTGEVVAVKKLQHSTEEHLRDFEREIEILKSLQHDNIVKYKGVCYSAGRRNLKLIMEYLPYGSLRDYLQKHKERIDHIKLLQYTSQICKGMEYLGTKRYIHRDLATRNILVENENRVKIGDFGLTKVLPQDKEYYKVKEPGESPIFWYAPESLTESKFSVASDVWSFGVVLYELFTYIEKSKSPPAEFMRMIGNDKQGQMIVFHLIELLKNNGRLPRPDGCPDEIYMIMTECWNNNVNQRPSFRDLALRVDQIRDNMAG", "assay": "NanoBRET assay (JAK2, SGC Frankfurt); call rule not given here"}, "[2]": {"molecular_target": "Receptor-type tyrosine-protein kinase FLT3 (Homo sapiens, UniProt P36888)", "sequence (P36888 whole entry)": "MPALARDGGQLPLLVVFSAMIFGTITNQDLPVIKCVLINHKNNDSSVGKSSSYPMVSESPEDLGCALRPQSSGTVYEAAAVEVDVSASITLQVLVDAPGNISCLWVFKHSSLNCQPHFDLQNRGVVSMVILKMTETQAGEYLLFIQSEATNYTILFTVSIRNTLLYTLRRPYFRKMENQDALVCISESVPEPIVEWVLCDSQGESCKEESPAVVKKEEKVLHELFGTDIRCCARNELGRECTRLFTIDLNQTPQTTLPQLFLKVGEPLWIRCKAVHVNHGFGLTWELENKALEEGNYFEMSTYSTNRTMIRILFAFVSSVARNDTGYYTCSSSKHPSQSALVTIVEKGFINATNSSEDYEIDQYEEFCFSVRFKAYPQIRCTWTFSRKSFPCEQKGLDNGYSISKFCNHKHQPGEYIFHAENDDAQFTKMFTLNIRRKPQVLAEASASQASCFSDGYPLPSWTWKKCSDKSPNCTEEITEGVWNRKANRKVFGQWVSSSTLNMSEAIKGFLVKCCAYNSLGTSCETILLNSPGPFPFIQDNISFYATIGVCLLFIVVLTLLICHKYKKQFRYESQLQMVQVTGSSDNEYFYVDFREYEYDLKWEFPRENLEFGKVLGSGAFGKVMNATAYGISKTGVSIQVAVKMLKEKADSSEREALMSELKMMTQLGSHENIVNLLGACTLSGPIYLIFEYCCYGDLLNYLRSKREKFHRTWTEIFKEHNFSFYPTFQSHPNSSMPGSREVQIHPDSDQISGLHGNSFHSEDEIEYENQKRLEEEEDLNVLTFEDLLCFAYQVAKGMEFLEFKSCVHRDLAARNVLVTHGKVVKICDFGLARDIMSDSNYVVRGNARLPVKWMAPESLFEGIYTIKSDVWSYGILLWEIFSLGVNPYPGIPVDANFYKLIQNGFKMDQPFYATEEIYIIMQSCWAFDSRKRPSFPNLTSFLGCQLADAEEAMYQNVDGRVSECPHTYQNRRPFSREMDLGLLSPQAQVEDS", "assay": "NanoBRET assay (FLT3, SGC Frankfurt)"}, "[3]": {"molecular_target": "Tyrosine-protein kinase JAK1 (Homo sapiens, UniProt P23458)", "sequence (P23458 whole entry)": "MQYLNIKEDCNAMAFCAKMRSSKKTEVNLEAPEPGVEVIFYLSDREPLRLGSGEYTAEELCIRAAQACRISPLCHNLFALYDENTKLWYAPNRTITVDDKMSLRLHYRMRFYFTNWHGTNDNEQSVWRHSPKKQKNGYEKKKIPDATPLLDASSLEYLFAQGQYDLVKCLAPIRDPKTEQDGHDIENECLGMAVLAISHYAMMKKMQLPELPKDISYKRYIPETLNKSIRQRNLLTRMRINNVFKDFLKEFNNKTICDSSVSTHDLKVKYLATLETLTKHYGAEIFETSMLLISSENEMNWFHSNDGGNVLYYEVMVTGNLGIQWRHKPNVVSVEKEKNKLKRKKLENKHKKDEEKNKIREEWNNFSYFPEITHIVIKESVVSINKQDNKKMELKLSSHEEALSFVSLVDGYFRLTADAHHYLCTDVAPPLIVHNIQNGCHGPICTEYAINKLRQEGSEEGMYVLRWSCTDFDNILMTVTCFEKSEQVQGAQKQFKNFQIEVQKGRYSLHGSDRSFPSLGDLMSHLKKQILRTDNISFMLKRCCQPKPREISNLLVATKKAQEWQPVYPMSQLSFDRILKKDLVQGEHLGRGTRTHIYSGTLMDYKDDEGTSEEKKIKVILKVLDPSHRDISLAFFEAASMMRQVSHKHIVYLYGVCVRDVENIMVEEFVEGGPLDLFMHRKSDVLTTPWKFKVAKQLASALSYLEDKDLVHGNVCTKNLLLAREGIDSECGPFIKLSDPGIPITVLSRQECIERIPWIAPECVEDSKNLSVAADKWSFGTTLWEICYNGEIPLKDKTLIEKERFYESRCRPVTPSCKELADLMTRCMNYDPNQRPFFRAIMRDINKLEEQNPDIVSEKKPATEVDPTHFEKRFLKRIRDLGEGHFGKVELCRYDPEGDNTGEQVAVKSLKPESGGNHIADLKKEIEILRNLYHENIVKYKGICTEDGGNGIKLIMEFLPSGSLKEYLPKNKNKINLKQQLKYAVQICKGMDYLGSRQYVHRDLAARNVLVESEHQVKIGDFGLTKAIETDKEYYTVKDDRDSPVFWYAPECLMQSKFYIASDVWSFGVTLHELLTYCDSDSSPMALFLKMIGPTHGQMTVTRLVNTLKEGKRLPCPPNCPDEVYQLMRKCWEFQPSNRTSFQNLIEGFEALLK", "assay": "NanoBRET assay (JAK1, SGC Frankfurt)"}},
  "data": [
    {"compound": "CN(C(=O)c1cnn2cccnc12)c1cc2c(cc1N1CCOCC1)C(=O)N(C[C@@H](F)C(C)(C)O)C2", "values": [
      {"measurement": "EC50", "setting": "[1]", "value": "> 50 µM (not active)"},
      {"measurement": "EC50", "setting": "[2]", "value": "3.6 µM (not active)"},
      {"measurement": "EC50", "setting": "[3]", "value": "> 50 µM (not active)"}
    ]}
  ]
}
